According to PubChem BioAssay (NCI):
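Test compounds were applied to cells in 96-well plates for 48 hours at 5 doses. At the TGI there is no net growth.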

What was measured:
Assay in all cases: NCI-60 cell line screen, 48 h
SF-539 CNS = tested on: SF-539 CNS
MALME-3M melanoma = tested on: MALME-3M melanoma
OVCAR-8 ovarian = tested on: OVCAR-8 ovarian
SW-620 colon = tested on: SW-620 colon
SN12C renal = tested on: SN12C renal
SF-268 CNS = tested on: SF-268 CNS
UACC-62 melanoma = tested on: UACC-62 melanoma
NCI/ADR-RES ovarian = tested on: NCI/ADR-RES ovarian
DU-145 prostate = tested on: DU-145 prostate
MDA-MB-231 breast = tested on: MDA-MB-231 breast
MOLT-4 leukemia = tested on: MOLT-4 leukemia
HOP-62 NSCLC = tested on: HOP-62 NSCLC
NCI-H23 lung = tested on: NCI-H23 lung
MDA-MB-435 = tested on: MDA-MB-435
CCRF-CEM leukemia = tested on: CCRF-CEM leukemia
RPMI-8226 leukemia = tested on: RPMI-8226 leukemia
SK-OV-3 ovarian = tested on: SK-OV-3 ovarian
OVCAR-4 ovarian = tested on: OVCAR-4 ovarian
SF-295 CNS = tested on: SF-295 CNS
SK-MEL-28 melanoma = tested on: SK-MEL-28 melanoma
HCC-2998 colon = tested on: HCC-2998 colon
786-0 renal = tested on: 786-0 renal
UACC-257 melanoma = tested on: UACC-257 melanoma
U251 CNS = tested on: U251 CNS
PC-3 prostate = tested on: PC-3 prostate
MCF7 breast = tested on: MCF7 breast
KM12 colon = tested on: KM12 colon
OVCAR-3 ovarian = tested on: OVCAR-3 ovarian
COLO 205 colon = tested on: COLO 205 colon
BT-549 breast = tested on: BT-549 breast
A549 NSCLC = tested on: A549 NSCLC
ACHN renal = tested on: ACHN renal
SNB-75 CNS = tested on: SNB-75 CNS
HOP-92 NSCLC = tested on: HOP-92 NSCLC
M14 melanoma = tested on: M14 melanoma
A498 renal = tested on: A498 renal
CAKI-1 renal = tested on: CAKI-1 renal
NCI-H460 lung = tested on: NCI-H460 lung
OVCAR-5 ovarian = tested on: OVCAR-5 ovarian
NCI-H522 lung = tested on: NCI-H522 lung
LOX IMVI melanoma = tested on: LOX IMVI melanoma
HCT-116 colon = tested on: HCT-116 colon
RXF 393 renal = tested on: RXF 393 renal
SK-MEL-2 melanoma = tested on: SK-MEL-2 melanoma
IGROV1 ovarian = tested on: IGROV1 ovarian
SNB-19 CNS = tested on: SNB-19 CNS
HCT-15 colon = tested on: HCT-15 colon
TK-10 renal = tested on: TK-10 renal
HT29 colon = tested on: HT29 colon
MDA-N = tested on: MDA-N
EKVX NSCLC = tested on: EKVX NSCLC
T-47D breast = tested on: T-47D breast
HS 578T breast = tested on: HS 578T breast
UO-31 renal = tested on: UO-31 renal
HL-60(TB) leukemia = tested on: HL-60(TB) leukemia
SR leukemia = tested on: SR leukemia
SK-MEL-5 melanoma = tested on: SK-MEL-5 melanoma
K-562 leukemia = tested on: K-562 leukemia
NCI-H226 lung = tested on: NCI-H226 lung

With CN(C)c1ccc(/C=C2\N=C(NNc3ccccc3)NC2=O)cc1 the TGI (SF-539 CNS) was 43.3 µM, the TGI (MALME-3M melanoma) was > 100 µM and the TGI (OVCAR-8 ovarian) was > 100 µM. The TGI (SW-620 colon) was 82.3 µM, the TGI (SN12C renal) was 44.6 µM and the TGI (SF-268 CNS) was > 100 µM. For the same molecule, the TGI (UACC-62 melanoma) was > 100 µM, the TGI (NCI/ADR-RES ovarian) was > 100 µM and the TGI (DU-145 prostate) was > 100 µM. The TGI (MDA-MB-231 breast) was 40.1 µM, the TGI (MOLT-4 leukemia) was > 100 µM and the TGI (HOP-62 NSCLC) was > 100 µM. The TGI (NCI-H23 lung) was 65.3 µM, the TGI (MDA-MB-435) was 59.1 µM and the TGI (CCRF-CEM leukemia) was > 100 µM. The TGI (RPMI-8226 leukemia) was 40.1 µM, the TGI (SK-OV-3 ovarian) was > 100 µM and the TGI (OVCAR-4 ovarian) was > 100 µM. It also gave a TGI (SF-295 CNS) of 83.4 µM, a TGI (SK-MEL-28 melanoma) of 71.4 µM and a TGI (HCC-2998 colon) of 30.9 µM. The TGI (786-0 renal) was 50.2 µM, the TGI (UACC-257 melanoma) was 38.5 µM and the TGI (U251 CNS) was 27.3 µM. It also gave a TGI (PC-3 prostate) of 29.3 µM, a TGI (MCF7 breast) of 41.9 µM and a TGI (KM12 colon) of 32.6 µM. For the same molecule, the TGI (OVCAR-3 ovarian) was 35 µM, the TGI (COLO 205 colon) was 29 µM and the TGI (BT-549 breast) was 83.2 µM. For the same molecule, the TGI (A549 NSCLC) was > 100 µM, the TGI (ACHN renal) was 61.9 µM and the TGI (SNB-75 CNS) was 78.9 µM. For the same molecule, the TGI (HOP-92 NSCLC) was 51.3 µM, the TGI (M14 melanoma) was > 100 µM and the TGI (A498 renal) was 42.1 µM. The TGI (CAKI-1 renal) was > 100 µM, the TGI (NCI-H460 lung) was 52.7 µM and the TGI (OVCAR-5 ovarian) was > 100 µM. The TGI (NCI-H522 lung) was 57.1 µM, the TGI (LOX IMVI melanoma) was 92.4 µM and the TGI (HCT-116 colon) was > 100 µM. The TGI (RXF 393 renal) was 78.9 µM, the TGI (SK-MEL-2 melanoma) was 44 µM and the TGI (IGROV1 ovarian) was 80.6 µM. For the same molecule, the TGI (SNB-19 CNS) was > 100 µM, the TGI (HCT-15 colon) was > 100 µM and the TGI (TK-10 renal) was 67.2 µM. For the same molecule, the TGI (HT29 colon) was > 100 µM, the TGI (MDA-N) was > 100 µM and the TGI (EKVX NSCLC) was 68.1 µM. The TGI (T-47D breast) was 38.8 µM, the TGI (HS 578T breast) was > 100 µM and the TGI (UO-31 renal) was > 100 µM.

In the case of C#C/C=C\CCCC/C=C\C#CC#CCCCC#CC#C[C@H](COS(=O)(=O)O)OS(=O)(=O)O, the TGI (SF-539 CNS) is reported as > 100 µM, the TGI (OVCAR-8 ovarian) is reported as > 100 µM and the TGI (HL-60(TB) leukemia) is reported as > 100 µM. The TGI (SW-620 colon) was > 100 µM, the TGI (SN12C renal) was > 100 µM and the TGI (SF-268 CNS) was > 100 µM. The TGI (UACC-62 melanoma) was > 100 µM, the TGI (NCI/ADR-RES ovarian) was > 100 µM and the TGI (DU-145 prostate) was > 100 µM. For the same molecule, the TGI (MDA-MB-231 breast) was > 100 µM, the TGI (MOLT-4 leukemia) was > 100 µM and the TGI (HOP-62 NSCLC) was > 100 µM. For the same molecule, the TGI (NCI-H23 lung) was > 100 µM, the TGI (MDA-MB-435) was > 100 µM and the TGI (CCRF-CEM leukemia) was > 100 µM. The TGI (RPMI-8226 leukemia) was > 100 µM, the TGI (OVCAR-4 ovarian) was > 100 µM and the TGI (SF-295 CNS) was > 100 µM. For the same molecule, the TGI (SK-MEL-28 melanoma) was > 100 µM, the TGI (HCC-2998 colon) was > 100 µM and the TGI (SR leukemia) was > 100 µM. The TGI (786-0 renal) was > 100 µM, the TGI (UACC-257 melanoma) was > 100 µM and the TGI (U251 CNS) was > 100 µM. For the same molecule, the TGI (PC-3 prostate) was > 100 µM, the TGI (MCF7 breast) was > 100 µM and the TGI (KM12 colon) was > 100 µM. The TGI (OVCAR-3 ovarian) was > 100 µM, the TGI (COLO 205 colon) was > 100 µM and the TGI (SK-MEL-5 melanoma) was > 100 µM. For the same molecule, the TGI (BT-549 breast) was > 100 µM, the TGI (A549 NSCLC) was > 100 µM and the TGI (ACHN renal) was > 100 µM. For the same molecule, the TGI (SNB-75 CNS) was > 100 µM, the TGI (HOP-92 NSCLC) was > 100 µM and the TGI (M14 melanoma) was > 100 µM. The TGI (CAKI-1 renal) was > 100 µM, the TGI (NCI-H460 lung) was > 100 µM and the TGI (OVCAR-5 ovarian) was > 100 µM. The TGI (NCI-H522 lung) was > 100 µM, the TGI (LOX IMVI melanoma) was > 100 µM and the TGI (HCT-116 colon) was > 100 µM. For the same molecule, the TGI (SK-MEL-2 melanoma) was > 100 µM, the TGI (IGROV1 ovarian) was > 100 µM and the TGI (SNB-19 CNS) was > 100 µM. For the same molecule, the TGI (HCT-15 colon) was > 100 µM, the TGI (TK-10 renal) was > 100 µM and the TGI (HT29 colon) was > 100 µM. The TGI (MDA-N) was > 100 µM, the TGI (EKVX NSCLC) was > 100 µM and the TGI (T-47D breast) was > 100 µM. The TGI (HS 578T breast) was > 100 µM and the TGI (UO-31 renal) was > 100 µM.

In the case of O=[N+]([O-])c1ccc2c(c1)N([O-])C1(CCCCC1)[N+]2=O, the TGI (K-562 leukemia) is reported as > 100 µM, the TGI (SF-539 CNS) is reported as 33.6 µM and the TGI (MALME-3M melanoma) is reported as 28.7 µM. The TGI (OVCAR-8 ovarian) was 42.6 µM, the TGI (NCI-H226 lung) was 37.4 µM and the TGI (HL-60(TB) leukemia) was > 100 µM. It also gave a TGI (SW-620 colon) of 56 µM, a TGI (SN12C renal) of 35.1 µM and a TGI (SF-268 CNS) of 69.4 µM. For the same molecule, the TGI (UACC-62 melanoma) was 37.1 µM, the TGI (NCI/ADR-RES ovarian) was 77.7 µM and the TGI (DU-145 prostate) was 33.9 µM. It also gave a TGI (MDA-MB-231 breast) of 34.4 µM, a TGI (MOLT-4 leukemia) of 51.9 µM and a TGI (HOP-62 NSCLC) of 31 µM. The TGI (NCI-H23 lung) was 66.3 µM, the TGI (MDA-MB-435) was 30.9 µM and the TGI (CCRF-CEM leukemia) was > 100 µM. It also gave a TGI (RPMI-8226 leukemia) of 65 µM, a TGI (SK-OV-3 ovarian) of 44.2 µM and a TGI (OVCAR-4 ovarian) of 23.7 µM. The TGI (SF-295 CNS) was 34 µM, the TGI (SK-MEL-28 melanoma) was 34.5 µM and the TGI (HCC-2998 colon) was 32.8 µM. The TGI (SR leukemia) was 51.5 µM, the TGI (786-0 renal) was 24.6 µM and the TGI (UACC-257 melanoma) was 29.4 µM. The TGI (U251 CNS) was 32.3 µM, the TGI (PC-3 prostate) was 31.2 µM and the TGI (MCF7 breast) was 36.6 µM. The TGI (KM12 colon) was 42.4 µM, the TGI (OVCAR-3 ovarian) was 51 µM and the TGI (COLO 205 colon) was 27.1 µM. For the same molecule, the TGI (SK-MEL-5 melanoma) was 28.9 µM, the TGI (A549 NSCLC) was 37 µM and the TGI (ACHN renal) was 33.8 µM. It also gave a TGI (SNB-75 CNS) of 33.2 µM, a TGI (HOP-92 NSCLC) of 29.1 µM and a TGI (M14 melanoma) of 30.5 µM. It also gave a TGI (CAKI-1 renal) of 34.9 µM, a TGI (NCI-H460 lung) of 37 µM and a TGI (OVCAR-5 ovarian) of 34.7 µM. The TGI (LOX IMVI melanoma) was 42.2 µM, the TGI (HCT-116 colon) was 33.3 µM and the TGI (RXF 393 renal) was 32.4 µM. The TGI (SK-MEL-2 melanoma) was 52.1 µM, the TGI (IGROV1 ovarian) was 36.9 µM and the TGI (SNB-19 CNS) was > 100 µM. The TGI (HCT-15 colon) was 39.4 µM, the TGI (TK-10 renal) was 26.2 µM and the TGI (HT29 colon) was 43.3 µM. The TGI (MDA-N) was 31.8 µM, the TGI (EKVX NSCLC) was 29.6 µM and the TGI (T-47D breast) was 64.7 µM. It also gave a TGI (HS 578T breast) of 47.9 µM and a TGI (UO-31 renal) of 33.7 µM.
